Residues, ends and D or L forms follow the SMILES beside them.
Legend:
HuH7 = type: cell-based, human; settings: 48 h
Excerpt: (§1) Liver cancer cells (HuH7, HepG2, and H22) and human liver cells (HL-7702) were obtained from the Cell Bank of the Chinese Academy of Sciences (Shanghai, China). Fresh L. japonica was acquired from the South China Agricultural University (Guangzhou, China) and identified by Professor C. Wang (South China Agricultural University, Guangzhou, China). The annexin V-FITC/PI staining assay kit and propidium iodide (PI) reagents were supplied by Beyotime (Shanghai, China). Dulbecco’s modified Eagle medium (DMEM), fetal bovine serum (FBS), and penicillin-streptomycin (PS) were purchased from Gibco BRL (Life Technologies, Grand Island, NY, USA). The antibodies used in the current study were acquired from Cell Signaling Technology, Inc. (Manchester, NH, USA). Cell lines were grown in specific medium supplemented with 10% FBS. Cells were grown in a humidified atmosphere with 5% CO2 in incubators maintained at 37 °C. Balb/c mice (6–8 weeks old, 20 ± 2 g) were acquired from the Guangdong Experimental Animal Center. Ab MTT assay was used to detect the cytotoxicity activity of LJPs in vitro [42]. Briefly, 5 × 10^3 cells/well were seeded in 96-well plates, and varying concentrations of LJP were added. After 48 h, the MTT solution (5 mg/mL) was added for an additional 4 h. The absorbance was measured at 570 nm using a microplate reader (Bio-Rad; Hercules, CA, USA) after 100 μL of DMSO was added. The IC^50 values were determined by the non-linear multipurpose curve-fitting program.

HepG2 = type: cell-based, human; settings: 48 h
Excerpt: as §1

H22 = type: cell-based; settings: 48 h
Excerpt: as §1

in vitro = type: cell-based; settings: human
Excerpt: as §1, with “Briefly, 5 × 10^3 cells/well were seeded in 96-well plates, and varying concentrations of LJP were added. After 48 h, the MTT solution (5 mg/mL) was added for an additional 4 h.” left out

Row | SMILES | IC50 (HuH7) [µM] | IC50 (HepG2) [µM] | IC50 (H22) [µM] | IC50 at 48 h (in vitro) [µM]
1 | CC(C)C[C@H](NC(=O)[C@H](Cc1c[nH]cn1)NC(=O)[C@H](Cc1ccccc1)NC(=O)CNC(=O)[C@@H](N)CCC(=O)O)C(=O)O [LJP-1] (H-EGFHL-OH) | 480 ± 50 | 450 ± 50 | 360 ± 30 | 7760 ± 710
2 | CC(C)C[C@H](N)C(=O)N[C@@H](Cc1c[nH]c2ccccc12)C(=O)N[C@@H](CCC(=O)O)C(=O)N[C@@H](Cc1c[nH]cn1)C(=O)N[C@@H](CO)C(=O)N[C@@H](Cc1c[nH]cn1)C(=O)O [LJP-2] (H-LWEHSH-OH) | 2250 ± 220 | 1710 ± 130 | 620 ± 50 | –
3 | N=C(N)NCCC[C@H](NC(=O)[C@H](Cc1c[nH]cn1)NC(=O)[C@H](CO)NC(=O)[C@@H](N)Cc1ccccc1)C(=O)NCC(=O)N[C@@H](Cc1c[nH]cn1)C(=O)O [LJP-3] (H-FSHRGH-OH) | 1420 ± 120 | > 4000 | 1700 ± 150 | –
4 | N[C@@H](CCC(=O)O)C(=O)NCC(=O)N[C@@H](Cc1c[nH]cn1)C(=O)NCC(=O)N[C@@H](Cc1ccccc1)C(=O)O [LJP-4] (H-EGHGF-OH) | 620 ± 70 | 650 ± 70 | 680 ± 70 | –
5 | C[C@@H](O)[C@H](NC(=O)[C@H](CO)NC(=O)[C@@H](N)Cc1ccccc1)C(=O)N[C@@H](Cc1c[nH]cn1)C(=O)NCC(=O)NCC(=O)O [LJP-5] (H-FSTHGG-OH) | 2440 ± 220 | 2780 ± 260 | 1490 ± 130 | –
6 | NCCCC[C@H](NC(=O)[C@@H](N)Cc1ccccc1)C(=O)N[C@@H](CCC(=O)O)C(=O)N[C@@H](Cc1c[nH]cn1)C(=O)NCC(=O)N[C@@H](Cc1ccc(O)cc1)C(=O)O [LJP-6] (H-FKEHGY-OH) | > 4000 | 3060 ± 310 | > 4000 | –
7 | C[C@H](NC(=O)[C@H](Cc1c[nH]c2ccccc12)NC(=O)[C@H](CO)NC(=O)[C@H](Cc1ccc(O)cc1)NC(=O)CNC(=O)[C@H](C)NC(=O)[C@@H](N)Cc1c[nH]cn1)C(=O)O [LJP-7] (H-HAGYSWA-OH) | 2530 ± 240 | 1660 ± 110 | 1440 ± 120 | –
8 | CC(C)[C@H](NC(=O)[C@H](Cc1ccc(O)cc1)NC(=O)[C@@H](NC(=O)[C@H](Cc1c[nH]cn1)NC(=O)[C@H](CO)NC(=O)[C@@H](N)Cc1ccccc1)[C@@H](C)O)C(=O)O [LJP-8] (H-FSHTYV-OH) | 440 ± 40 | 630 ± 50 | 760 ± 80 | –
9 | N[C@@H](Cc1ccccc1)C(=O)N[C@@H](CCC(=O)O)C(=O)N[C@@H](Cc1c[nH]cn1)C(=O)N[C@@H](CO)C(=O)NCC(=O)O [LJP-9] (H-FEHSG-OH) | 530 ± 50 | 690 ± 80 | 510 ± 70 | –
10 | C[C@H](NC(=O)[C@@H](N)Cc1c[nH]cn1)C(=O)N[C@@H](CO)C(=O)N[C@@H](Cc1c[nH]c2ccccc12)C(=O)N[C@@H](CCC(=O)O)C(=O)N[C@@H](Cc1c[nH]cn1)C(=O)O [LJP-10] (H-HASWEH-OH) | 3520 ± 350 | 2690 ± 220 | 3530 ± 340 | –
11 | N[C@@H](Cc1ccc(O)cc1)C(=O)N[C@@H](CCC(=O)O)C(=O)N[C@@H](Cc1c[nH]cn1)C(=O)N[C@@H](CO)C(=O)N[C@@H](Cc1c[nH]cn1)C(=O)NCC(=O)O [LJP-11] (H-YEHSHG-OH) | 490 ± 50 | 610 ± 70 | 700 ± 70 | –
12 | C[C@@H](O)[C@H](N)C(=O)N[C@@H](Cc1ccccc1)C(=O)N[C@@H](CCCCN)C(=O)N[C@@H](Cc1c[nH]cn1)C(=O)NCC(=O)O [LJP-12] (H-TFKHG-OH) | 410 ± 40 | 600 ± 80 | 720 ± 50 | –
